Patent US6670401B2, “Polysubstituted indan-1-ol compounds, and methods for their preparation and use” (Aventis Pharma Deutschland GmbH, priority 2001, dated 2003)

Experiments:
female NMRI mice = test: Anorectic action: cumulative evaporated milk consumption after 24 h feed removal; format: in vivo, mouse; conditions: 30 mg/kg i.p.
Protocol: The activity of the compounds was assayed as follows:
The anorectic action was tested on female NMRI mice. After removal of feed for 24 hours, the preparation to be tested was administered intraperitoneally (i.p.) or by gavage (po). The animals were housed singly and, with free access to drinking water, they were offered evaporated milk 30 minutes after administration of the preparation. The consumption of evaporated milk was determined and the general behavior of the animals was monitored every half an hour for 7 hours. The measured milk consumption was compared to that of vehicle-treated control animals.

CC1(O)c2ccc(Cl)cc2CC1(F)S(C)(=O)=O (stereo not drawn) [Example 1, 5-Chloro-2-fluoro-2-methanesulfonyl-1-methylindan-1-ol]
melting point: 148 °C | Reduction in cumulative milk consumption as % of the control (female NMRI mice; compared with vehicle-treated control animals): 25% | cumulative milk consumption by treated animals (female NMRI mice; milk offered 30 min after administration, monitored for 7 hours, N=4): 4/2.88 ml
